Data on two molecules can be found in patent US9684238B2, “Fluorene-type compound, photopolymerization initiator comprising said fluorene-type compound, and photosensitive composition containing said photopolymerization initiator” (TOKYO OHKA KOGYO CO., LTD., priority 2012, dated 2017).

A short description of data set [1]: Evaluation 1: 20-μm pattern line width of transparent photosensitive composition. Conditions: transparent composition, initiator 0.4 mmol.
Data set [2] is described as follows: Decomposition point by thermal analysis (TG-DTA). Type of data set: physicochemical. Conditions: 5.0 mg. The procedure: The compounds 1, 2, 4, 6, 8, 9, 11, 12, 13, 15, 16, D-1, D-3, D-4, D-7, D-8, D-9, D-12, D-14, D-15, D-20, C-1, and C-2 were each subjected to measurement with a thermal analysis apparatus (TG-DTA) (manufactured by Rigaku Corporation, trade name: “Thermo Plus EVO TG 8120”) by using 5.0 mg thereof.

Data set [3] can be described thus: Evaluation 3: 20-μm pattern line width of black photosensitive composition. Conditions: black composition (carbon black, cardo resin), initiator 0.4 mmol. In a few lines: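 Composition spin-coated on glass to 1.0 μm dry thickness, dried 90 °C for 10 min, exposed at 10–80 mJ/cm^2 via high-pressure mercury lamp through 20 μm negative mask, developed in 0.1 wt % TMAH, rinsed. Line width of remaining cured film measured; larger width means higher sensitivity.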

Data set [4] in a line: Average transmittance of composition. Format: physicochemical. The following applies: photosensitive composition, quartz cell, optical path length 1 cm. The procedure:
The average transmittance (%) of each of the photosensitive resin compositions obtained in Examples 1 to 9, Examples 2-1 to 2-10, and Comparative Examples 1 and 2 in the range of from 400 nm to 700 nm was measured with a spectrophotometer (manufactured by Hitachi High-Technologies Corporation, trade name: “U-3900H”, quartz cell, optical path length; 1 cm).

Data set [5] in a line: Transmittance of transparent cured film. Format: physicochemical. Conditions: cured at exposure energy quantity 80 mJ/cm^2. In a few lines: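 Films cured at 80 mJ/cm^2 exposure, otherwise prepared as in the earlier film evaluation. Spectrophotometer read in quartz cell, 1 cm path, giving transmittance (%) at 400 nm and average transmittance (%) over 400–700 nm.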
Data set [6] is described as follows: Solubility in PGME, PGMEA and ethyl lactate. Type of data set: physicochemical. The following applies: room temperature; for Solubility Ethyl lactate: in 100 parts by weight of ethyl lactate; for Solubility PGMEA: in 100 parts by weight of propylene glycol monomethyl ether acetate; for Solubility PGME: in 100 parts by weight of propylene glycol monomethyl ether. Here is the method:
An evaluation for solubility was performed in accordance with the following evaluation criteria based on the dissolution amount.
A: 10 Parts by weight or more of the photopolymerization initiator is dissolved.
B: An amount in the range of from 5 parts by weight or more to less than 10 parts by weight of the photopolymerization initiator is dissolved.
C: An amount in the range of from 2 parts by weight or more to less than 5 parts by weight of the photopolymerization initiator is dissolved.
D: Less than 2 parts by weight of the photopolymerization initiator is dissolved.

Data set [7] can be described thus: Absorption coefficient (absorbance of 0.001% solution in tetrahydrofuran). Type of data set: physicochemical. The following applies: for Λ max (absorption maximum wavelength): 0.001% (wt/vol) in tetrahydrofuran, from 280 nm to 400 nm; for Absorption coefficient at 365 nm / Absorption coefficient at Λ max: 0.001% (wt/vol) solution in tetrahydrofuran. A digest of the protocol:
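Absorbance of a 0.001% (wt/vol) solution in tetrahydrofuran recorded by spectrophotometer. Absorption maximum wavelength (λmax) taken from the spectrum within 280–400 nm.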

[8] abbreviates: exposure energy quantity 20 mJ/cm^2.
Where [9] appears, read: exposure energy quantity 40 mJ/cm^2.
The mark [10] stands for this setting: exposure energy quantity 80 mJ/cm^2.

For the molecule `CCn1c2ccc(C(=O)c3ccccc3C)cc2c2cc(/C(C)=N/OC(C)=O)ccc21` [Compound C-1, reference compound], the “20-μm pattern line width” value in data set [1] (setting [8]) came out at 20.4; in data set [1] (setting [9]), 22.1; in data set [1] (exposure energy quantity 60 mJ/cm^2) it was 22.3; in data set [1] (setting [10]), 22.4; in data set [3] (10 mJ/cm^2) it was 18.5; in data set [3] (20 mJ/cm^2), 19.0. Besides, the “20-μm pattern line width” value in data set [3] (40 mJ/cm^2) worked out at 20.0; in data set [3] (60 mJ/cm^2), 20.9; in data set [3] (80 mJ/cm^2), 21.2. This molecule returned a Decomposition point in data set [2] of 216.4 °C. Moreover, in data set [4], the “Average transmittance (700 nm to 400 nm) Solution” value came out at 94.2%. Also, the “Average transmittance (700 nm to 400 nm) Transparent cured film” value in data set [5] is recorded as 99.8%. For the same molecule, the “Transmittance (400 nm) Transparent cured film” value in data set [5] amounted to 98.9%. Further, in data set [6], the “Solubility Ethyl lactate” value is “C (An amount in the range of from 2 parts by weight or more to less than 5 parts by weight of the photopolymerization initiator is dissolved.)”. In data set [6], the “Solubility PGMEA” value was “B (An amount in the range of from 5 parts by weight or more to less than 10 parts by weight of the photopolymerization initiator is dissolved.)”. The “Solubility PGME” value in data set [6] is “B (An amount in the range of from 5 parts by weight or more to less than 10 parts by weight of the photopolymerization initiator is dissolved.)”. Further, in data set [7], the “Λ max (absorption maximum wavelength)” value amounted to 298.5 nm. In addition, the “Absorption coefficient at 365 nm” value in data set [7] is 4.4 mL/mg/cm. Also, the “Absorption coefficient at Λ max” value in data set [7] is 94.4 mL/mg/cm.

Take `CCCC1(CCC)c2cc(C(=O)/C(C)=N/OC(C)=O)ccc2-c2ccc(C(=O)c3ccc([N+](=O)[O-])cc3)cc21` [Compound D-9]: the “20-μm pattern line width” value in data set [1] (exposure energy quantity 5 mJ/cm^2) worked out at 19.3; in data set [1] (exposure energy quantity 10 mJ/cm^2), 19.5; in data set [1] (setting [8]) it was 20.0; in data set [1] (setting [9]), 20.7; in data set [1] (setting [10]), 21.7; in data set [3] (10 mJ/cm^2), 18.8. For the same molecule, the “20-μm pattern line width” value came to 19.1 in data set [3] (20 mJ/cm^2), 20.1 in data set [3] (40 mJ/cm^2), 20.9 in data set [3] (60 mJ/cm^2) and 21.2 in data set [3] (80 mJ/cm^2). In data set [2], the Decomposition point came out at 228.9 °C. The “Average transmittance (700 nm to 400 nm) Solution” value in data set [4] was determined as 70.9%. The “Average transmittance (700 nm to 400 nm) Transparent cured film” value in data set [5] was 99.8%. The “Transmittance (400 nm) Transparent cured film” value in data set [5] amounted to 96.4%. In addition, in data set [6], the “Solubility Ethyl lactate” value is “C (An amount in the range of from 2 parts by weight or more to less than 5 parts by weight of the photopolymerization initiator is dissolved.)”. The “Solubility PGMEA” value in data set [6] is listed as “C (An amount in the range of from 2 parts by weight or more to less than 5 parts by weight of the photopolymerization initiator is dissolved.)”. The “Solubility PGME” value in data set [6] is given as “D (Less than 2 parts by weight of the photopolymerization initiator is dissolved.)”. For the same molecule, the “Λ max (absorption maximum wavelength)” value in data set [7] amounted to 343.0 nm. Also, the “Absorption coefficient at 365 nm” value in data set [7] was 29.1 mL/mg/cm. Besides, the “Absorption coefficient at Λ max” value in data set [7] came out at 63.7 mL/mg/cm.
